Where “and” joins values, the source holds several entries; their conditions need not be identical. Equal entries are not always repeated. Where two headings read alike, the source gives them in different places.

Consider eight compounds from paper PMC10885115, “Susceptibility of Tetranychus urticae to the Alkaloidal Extract of Zanthoxylum schreberi Bark: Phenotypic and Biochemical Insights for Biotechnological Exploitation” (BioTech, 2024).

The target in series [1] is glutathione S-transferase (GST). The series can be described thus: GST inhibition in T. urticae protein homogenate. The class given is biochemical, Tetranychus urticae. Conditions: pure compounds, read-out: GST IC50 (95% interval confidence). As to the method:
(§1) The protein homogenate from T. urticae adult females (n = 50) was prepared by homogenizing them in 500 μL of 0.1 M phosphate buffer (pH 7.2) in an ice bath. After homogenization, the mixture was centrifuged at 12,000× g for 20 min at 4 °C. Both untreated mites and those treated with 0.5% Z. schreberi bark extract were processed similarly. The protein content within the homogenate was quantified using the linearized Bradford micromethod, employing bovine serum albumin as an external standard. A calibration curve was established based on the ratio of absorbance measurements at 590 nm and 450 nm, ensuring linearity with varying protein concentrations. The resulting supernatant was subsequently stored at −20 °C for further enzyme analysis.
GST activity was assessed using 1-chloro-2, 4-dinitrobenzene (CDNB) as the substrate, following a previous procedure. Briefly, the reaction was initiated by mixing CDNB (50 mM in ethanol, 50 µL) and reduced glutathione (50 mM in 0.1 M phosphate-buffered saline (PBS), pH 6.5, 150 µL) in a 5 mL vial with phosphate buffer (0.1 M, pH 6.5 containing 1 mM EDTA, 2.78 mL). Subsequently, 20 µL of protein homogenate was added, and the solution was thoroughly mixed. An aliquot (200 µL) from the resulting mixture was dispensed into a microtiter plate well for measurement, with the procedure performed in triplicate for both biological and technical replicates. The absorbance of each reaction mixture at 340 nm was then recorded using kinetics on a Varioskan LUX 96-well plate reader (Thermo Fisher Scientific, Waltham, MA, USA) after a 10 min duration. The specific GST activity was calculated using the kinetic slope to convert μmoles of product per minute (9.6 mM^−1cm^−1 and 0.3 cm), thereby determining the specific enzyme activity expressed as μmol of substrate/min/mg protein.
(§2) Further investigation involved determining the inhibition of the test enzymes (i.e., AChE, GST, esterase, and PMO). […] The final absorbance measurements of each treatment (At) and control (Ac) were related to the calculated enzyme inhibition percentage using Equation (3). (3) Enzyme Inhibition (%)=[…]
(§3) This determination was performed for each treatment concentration (extract and purified compound) to establish dose–response curves. The IC50 (half-maximal inhibitory concentration in μg/mL for extract and μM for pure compounds) was calculated via nonlinear regression analysis using GraphPad 7.0 (GraphPad Software LLC, Boston, MA, USA).

For the next series, the target named is general esterases. The series can be described thus: General esterase inhibition in T. urticae protein homogenate. The format is biochemical, Tetranychus urticae. Conditions: pure compounds, read-out: Est IC50 (95% interval confidence). The method, then:
as §1
Enzyme activity of general esterases was assessed using p-nitrophenylacetate as substrate, following a previous procedure. In brief, the protein homogenate (10 µL) was mixed in a microtiter plate well with 1 mM p-nitrophenyl acetate (200 µL) in 50 mM phosphate buffer pH 7.4. The absorbance was measured at 405 nm after a 10 min incubation period using a Varioskan LUX 96-well plate reader (Thermo Fisher Scientific, Waltham, MA, USA). The specific esterase activity was calculated using the kinetic slope to convert μmoles of product per minute (6.53 mM^−1cm^−1 and 0.3 cm), thereby determining the specific enzyme activity expressed as μmol of substrate/min/mg protein.
as §2, §3

A further series concerns P450 monooxygenase (PMO). The series can be described thus: PMO inhibition in T. urticae protein homogenate. The class given is biochemical, Tetranychus urticae. Conditions: pure compounds, read-out: PMO IC50 (95% interval confidence). The method, then: as §1
The PMO activity was measured by reducing hydrogen peroxide to oxidize 3,3′,5,5′-tetramethylbenzidine (TMBZ), following a previous procedure. Briefly, the protein homogenate (20 µL) was mixed in a microtiter plate well with 6 mM TMBZ (200 µL) working solution (TMBZ (0.01 g) in methanol (5 mL) and 0.25 M sodium acetate (pH 5.0, 15 mL)) and 3% H2O2 (25 µL) for 30 min at 25 °C. After this incubation period, the absorbance was read at 630 nm on a Varioskan LUX 96-well plate reader (Thermo Fisher Scientific, Waltham, MA, USA). The standard curve of heme peroxidase activity was prepared using Cytochrome C from equine heart (Merck, Milwakee, WI, USA). Total Cytochrome P450 monoxygenase was expressed as µmoles of Cytochrome P450 equivalent units (CPEU)/min/mg protein.
as §2, §3

The target in series [2] is acetylcholinesterase (AChE) and butyrylcholinesterase (BuChE) from various sources. Also noted: method as in PMID 37073143. The conditions noted are these: most potent of 34 isoquinoline alkaloids; cited from earlier work.
Series [3] concerns T. urticae adult females (exposed mite population). The series can be described thus: Mortality test for Z. schreberi bark extract using exposed mites (leaf-immersion). Conditions: 0.06% chlorfenapyr (PC, commercially recommended dose). The format is in vivo, Tetranychus urticae. The source says:
The experimental setup involved a transparent cylindrical container with a 3.5 cm diameter filter paper disk placed at the bottom, moistened with distilled water. Bean leaf disks, previously immersed in the respective extract solution and air-dried, were then positioned on the paper disk. The container lid underwent modification, featuring a centrally located circular opening. A metal mesh, perforated with small holes, was affixed using silicone around this opening to facilitate ventilation and prevent mites from escaping. Concentrations ranging from 2, 1, 0.5, and 0.25, to 0.125% of the Z. schreberi bark alkaloidal extract were evaluated diluted in 10% ethanol. These concentrations were selected since they comprise typical doses for botanical pesticides, and, consequently, they were standardized in previous studies in our laboratory to assess botanical extracts. Additionally, three control treatments were employed: an absolute control (application of distilled water), a relative control (10% ethanol), and a positive control (clorfenapyr at 0.06%). Mortality assessments were conducted at 24, 48, and 72 h post-treatment application. The obtained mortality data were adjusted using Schneider–Orelli’s formula (Equation (1)). […]

Series [4] concerns T. urticae females from the unexposed rearing system. The series can be described thus: Preliminary mortality test with unexposed mites. The class given is in vivo, Tetranychus urticae. Conditions: 0.4% chlorfenapyr (positive control), airbrush application. As to the method: A preliminary trial was conducted to determine the effect of Z. schreberi alkaloidal extract on mites for subsequent experiments, following the methodology outlined by Numa et al. (2015), with certain modifications. Briefly, the bioassay comprised a bean leaf with its underside facing upward, which was placed in a petri dish and its edges lined with cotton moistened using distilled water. Ten T. urticae females from the unexposed rearing system were situated on each leaf. The bioassay on females was driven by their pivotal role in population dynamics, as they are the primary contributors to new individuals. The net reproductive rate per generation (Ro) or population replacement rate is directly dependent on female reproductive capabilities. Consequently, any lethal or sublethal effects observed in females and oviposition will directly influence population growth. This approach led us to assess the potential of the extracts as a promising strategy for pest control, considering their impact on the crucial factor of population expansion. Subsequently, each dish was sealed with plastic wrap post-application of treatments. The evaluated treatments comprised an absolute control (mites without any application), a positive control (chlorfenapyr at 0.4%), and the alkaloidal extract of Z. schreberi at 2%. […] Deceased mites were counted 24 h post-application.

In series [5] the test system is T. urticae adult females (exposed mite population). The series can be described thus: Fecundity (oviposition) test for extract combined with commercial acaricides. The class given is in vivo, Tetranychus urticae. Conditions: 0.06% chlorfenapyr, 0.075% cyflumetofen, 0.05% abamectin, 0.5% extract and combinations M2 to M4; surviving females after 72 h exposure. As to the method: (§4) Using the same methodology described in the previous section, the following treatments were evaluated in this test: absolute control (application of distilled water), relative control (10% ethanol), positive control A (clorfenapyr at 0.06%), positive control B (cyflumetofen at 0.075%), positive control C (abamectin at 0.05%), treatment 1 (0.5% extract), treatment 2 (0.5% extract + 0.06% clorfenapyr), treatment 3 (0.5% extract + 0.075% cyflumetofen), and treatment 4 (0.5% extract + 0.05% abamectin). Mortality assessments were conducted at 24, 48, and 72 h post-treatment application and adjusted using the Schneider–Orelli formula (Equation (1)). Fecundity was also measured by isolating five surviving females per treatment (after 72 h of exposure to treatments) in petri dishes. The number of eggs oviposited by each female was counted every 24 h over 5 days. Simultaneously with the susceptibility test, the repellent effect of the extract was measured by counting the number of surviving females placed outside the leaves after 24, 48, and 72 h. All laboratory tests were conducted under controlled conditions at 25 ± 2 °C, 60 ± 5% relative humidity, and a 12:12 (light/dark) photoperiod.

A further series deals with T. urticae. The conditions noted are these: cited from earlier work.
The test system of series [6] is T. urticae adult females (exposed mite population). Description: Mortality test for extract combined with commercial acaricides (exposed mites). The format is in vivo, Tetranychus urticae. As to the method: as §4
Series [7] has the same test system. The series can be described thus: Repellency test for Z. schreberi bark extract using exposed mites. The class given is in vivo, Tetranychus urticae. The conditions noted are these: 0.06% chlorfenapyr.
In series [8] the test system is T. cinnabarinus Boisdu-Val. Further details: method as in PMID 24861930. Conditions: resistant strain; cited from earlier work.
Series [9] concerns the target T1, acetylcholinesterase (AChE) (Tetranychus urticae, UniProt D8V7J9).
T1 sequence (D8V7J9 74-665): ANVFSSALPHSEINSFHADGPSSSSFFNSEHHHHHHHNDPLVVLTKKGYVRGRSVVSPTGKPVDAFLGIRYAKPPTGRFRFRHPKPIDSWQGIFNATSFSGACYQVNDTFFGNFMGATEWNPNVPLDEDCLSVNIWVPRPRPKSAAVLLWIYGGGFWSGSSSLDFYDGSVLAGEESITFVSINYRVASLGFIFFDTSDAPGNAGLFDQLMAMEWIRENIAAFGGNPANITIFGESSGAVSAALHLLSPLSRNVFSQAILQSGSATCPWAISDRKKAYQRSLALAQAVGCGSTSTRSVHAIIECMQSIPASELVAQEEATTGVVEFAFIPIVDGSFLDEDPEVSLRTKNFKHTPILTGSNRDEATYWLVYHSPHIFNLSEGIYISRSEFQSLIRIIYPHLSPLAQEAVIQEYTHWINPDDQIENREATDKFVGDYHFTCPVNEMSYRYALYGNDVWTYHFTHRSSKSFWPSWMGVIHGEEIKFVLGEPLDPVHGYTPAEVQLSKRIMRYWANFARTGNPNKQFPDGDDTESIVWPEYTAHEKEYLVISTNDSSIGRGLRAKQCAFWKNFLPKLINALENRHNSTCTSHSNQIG
The format is biochemical. Conditions: pure compounds; T. urticae protein homogenate; read-out: AChE IC50 (95% interval confidence).
Experimental: The protein homogenate from T. urticae adult females (n = 50) was prepared by homogenizing them in 500 μL of 0.1 M phosphate buffer (pH 7.2) in an ice bath. After homogenization, the mixture was centrifuged at 12,000× g for 20 min at 4 °C. […] The protein content within the homogenate was quantified using the linearized Bradford micromethod [40], employing bovine serum albumin as an external standard. A calibration curve was established based on the ratio of absorbance measurements at 590 nm and 450 nm, ensuring linearity with varying protein concentrations [40]. The resulting supernatant was subsequently stored at −20 °C for further enzyme analysis.
The Ellman method was employed to assess AChE activity in both untreated and Z. schreberi-treated mites, following a previous procedure [41]. […]
Further investigation involved determining the inhibition of the test enzymes (i.e., AChE, GST, esterase, and PMO). […] The final absorbance measurements of each treatment (At) and control (Ac) were related to the calculated enzyme inhibition percentage using Equation (3). […]

`COc1ccc2cc3[n+](cc2c1O)CCc1cc2c(cc1-3)OCO2` [Compound 3, berberrubine]: the IC50 is 5.61 µM in [1], over 300 µM at general esterases and 62.7 µM in the series with P450 monooxygenase (PMO).

In the case of `COc1ccc2c(c[n+](C)c3c4cc5c(cc4ccc23)OCO5)c1OC` [Compound 4, chelerythrine], the half-inhibitory concentration (IC50) in [1] was 11.7 µM; at general esterases, over 300 µM; with P450 monooxygenase (PMO), 89.6 µM.

In the case of `COc1ccc2cc3[n+](cc2c1OC)CCc1cc2c(cc1-3)OCO2` [Compound 6, berberine], the IC50 is 1.24 µM in series [1], over 300 µM on general esterases, 386 µM in the series with P450 monooxygenase (PMO) and 0.72 µg/mL in [2].

Turning to `COc1c(O)ccc2cnc3c4cc5c(cc4ccc3c12)OCO5` [Compound 9, zanthoxyline], the IC50 in series [1] is 21.5 µM; on general esterases it was 289 µM; in the series with P450 monooxygenase (PMO) it was 8.37 µM.

For `CCOCn1c(-c2ccc(Cl)cc2)c(C#N)c(Br)c1C(F)(F)F` [chlorfenapyr], the “Corrected average mortality after 72 h” value in [3] stood at 24.6%; in series [6] (0.06% chlorfenapyr alone (PCA)) it was 20.9%. Also, in series [4], the “Corrected mortality after 24 h” value is 93.3%. Further, the “Average fecundity per female over 5 days compared to controls AC and RC” value in [5] is reported as “statistically significant reduction”. In addition, the LD50 with T. urticae (two resistant strains of T. urticae, listed as clorfenapyr) was 0.08% and 0.29%. Further, the “Repellency after 72 h” value in series [7] is listed as “lowest repellency”.

`COCCOC(=O)C(C#N)(C(=O)c1ccccc1C(F)(F)F)c1ccc(C(C)(C)C)cc1` (stereo not shown) [cyflumetofen]: the “Average fecundity per female over 5 days compared to controls AC and RC” value in [5] is listed as “statistically significant reduction”. Besides, the LD50 with T. urticae (susceptible strain of T. urticae) was 0.00011%; in series [8], 0.0016%. In series [6] (0.075% cyflumetofen alone (PCB)), the “Corrected average mortality after 72 h” value was found to be 32.5%.

Take abamectin: the “Average fecundity per female over 5 days compared to controls AC and RC” value in [5] is recorded as “statistically significant reduction”.

As for fagaridine [Compound 5], the IC50 was 112 µM in series [1], 14.6 µM in series [9], over 300 µM at general esterases and 20.9 µM in the series with P450 monooxygenase (PMO).

As a reminder, the IC50 is the concentration that gives 50% inhibition.
